Assay results from article PMC8429728, “TNK1 is a ubiquitin-binding and 14-3-3-regulated kinase that can be targeted to block tumor growth” (Nature Communications, 2021).
Where two headings read alike, the source gives them in different places.

Experiments:
Assay in all cases: biochemical
Set-up in all cases: Reaction Biology 371-kinase panel at Km ATP, per cent enzyme activity relative to DMSO, single dose in duplicate
JAK1 = JAK1 (Homo sapiens, UniProt P23458); conditions: duplicate measurements, Km ATP
Sequence of JAK1 (P23458 whole entry): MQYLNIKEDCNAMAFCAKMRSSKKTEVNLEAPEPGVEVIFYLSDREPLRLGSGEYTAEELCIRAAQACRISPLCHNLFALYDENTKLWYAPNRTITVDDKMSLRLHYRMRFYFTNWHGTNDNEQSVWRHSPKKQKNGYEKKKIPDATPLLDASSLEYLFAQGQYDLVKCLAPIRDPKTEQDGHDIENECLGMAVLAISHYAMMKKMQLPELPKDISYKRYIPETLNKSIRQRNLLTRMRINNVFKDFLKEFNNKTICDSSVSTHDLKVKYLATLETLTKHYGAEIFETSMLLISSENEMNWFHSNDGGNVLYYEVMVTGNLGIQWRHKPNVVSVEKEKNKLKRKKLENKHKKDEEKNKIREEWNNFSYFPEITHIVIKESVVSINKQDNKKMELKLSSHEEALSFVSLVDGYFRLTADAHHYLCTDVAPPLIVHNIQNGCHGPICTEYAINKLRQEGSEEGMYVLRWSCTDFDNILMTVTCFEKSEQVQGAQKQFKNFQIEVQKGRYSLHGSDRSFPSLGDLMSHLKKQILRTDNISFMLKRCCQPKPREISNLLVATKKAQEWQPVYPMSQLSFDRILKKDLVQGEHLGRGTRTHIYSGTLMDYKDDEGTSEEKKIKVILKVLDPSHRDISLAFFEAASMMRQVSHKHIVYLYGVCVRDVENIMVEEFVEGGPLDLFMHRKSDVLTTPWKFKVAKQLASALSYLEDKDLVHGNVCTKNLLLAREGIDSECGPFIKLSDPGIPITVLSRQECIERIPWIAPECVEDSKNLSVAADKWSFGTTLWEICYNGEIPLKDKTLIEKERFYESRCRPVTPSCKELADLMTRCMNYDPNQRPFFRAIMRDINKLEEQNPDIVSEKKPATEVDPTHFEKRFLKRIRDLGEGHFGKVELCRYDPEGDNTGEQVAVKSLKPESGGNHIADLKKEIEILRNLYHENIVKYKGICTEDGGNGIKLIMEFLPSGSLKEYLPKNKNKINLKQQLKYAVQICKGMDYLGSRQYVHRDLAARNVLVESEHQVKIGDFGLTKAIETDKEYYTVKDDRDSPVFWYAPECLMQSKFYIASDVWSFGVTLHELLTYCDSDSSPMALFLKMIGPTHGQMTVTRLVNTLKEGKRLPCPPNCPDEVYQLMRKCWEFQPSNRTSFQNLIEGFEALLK
How it was run: (§1)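 Percent kinase activity relative to vehicle (DMSO) is reported for a 371-kinase in vitro panel at 300 nM compound; IC50 values derive from variable-slope sigmoidal fits with the lower plateau fixed at 0.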

DYRK4 = molecular target: T1, DYRK4 (Homo sapiens, UniProt Q9NR20); conditions: duplicate measurements, Km ATP
T1 sequence (Q9NR20 1-520): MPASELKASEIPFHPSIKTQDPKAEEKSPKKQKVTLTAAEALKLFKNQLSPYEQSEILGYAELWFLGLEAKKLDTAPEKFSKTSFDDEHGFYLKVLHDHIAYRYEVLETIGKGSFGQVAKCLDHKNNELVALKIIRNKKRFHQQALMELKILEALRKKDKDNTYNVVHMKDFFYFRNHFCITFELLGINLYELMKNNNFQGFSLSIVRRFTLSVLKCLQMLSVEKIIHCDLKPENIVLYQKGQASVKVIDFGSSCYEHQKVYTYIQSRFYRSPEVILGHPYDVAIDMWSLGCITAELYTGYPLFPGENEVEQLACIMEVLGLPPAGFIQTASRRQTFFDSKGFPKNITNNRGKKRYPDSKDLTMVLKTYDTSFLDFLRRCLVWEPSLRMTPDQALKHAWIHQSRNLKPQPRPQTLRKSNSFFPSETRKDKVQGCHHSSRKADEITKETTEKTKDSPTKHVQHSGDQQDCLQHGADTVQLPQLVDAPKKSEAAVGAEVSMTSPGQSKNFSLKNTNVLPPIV
How it was run: as §1

IRAK1 = IRAK1 (Homo sapiens, UniProt P51617); conditions: duplicate measurements, Km ATP
How it was run: as §1

TAOK2/TAO1 = TAOK2/TAO1 (Homo sapiens, UniProt Q9UL54); conditions: duplicate measurements, Km ATP
How it was run: as §1

MAST3 = MAST3 (Homo sapiens, UniProt O60307); conditions: duplicate measurements, Km ATP
Sequence of MAST3 (O60307 whole entry): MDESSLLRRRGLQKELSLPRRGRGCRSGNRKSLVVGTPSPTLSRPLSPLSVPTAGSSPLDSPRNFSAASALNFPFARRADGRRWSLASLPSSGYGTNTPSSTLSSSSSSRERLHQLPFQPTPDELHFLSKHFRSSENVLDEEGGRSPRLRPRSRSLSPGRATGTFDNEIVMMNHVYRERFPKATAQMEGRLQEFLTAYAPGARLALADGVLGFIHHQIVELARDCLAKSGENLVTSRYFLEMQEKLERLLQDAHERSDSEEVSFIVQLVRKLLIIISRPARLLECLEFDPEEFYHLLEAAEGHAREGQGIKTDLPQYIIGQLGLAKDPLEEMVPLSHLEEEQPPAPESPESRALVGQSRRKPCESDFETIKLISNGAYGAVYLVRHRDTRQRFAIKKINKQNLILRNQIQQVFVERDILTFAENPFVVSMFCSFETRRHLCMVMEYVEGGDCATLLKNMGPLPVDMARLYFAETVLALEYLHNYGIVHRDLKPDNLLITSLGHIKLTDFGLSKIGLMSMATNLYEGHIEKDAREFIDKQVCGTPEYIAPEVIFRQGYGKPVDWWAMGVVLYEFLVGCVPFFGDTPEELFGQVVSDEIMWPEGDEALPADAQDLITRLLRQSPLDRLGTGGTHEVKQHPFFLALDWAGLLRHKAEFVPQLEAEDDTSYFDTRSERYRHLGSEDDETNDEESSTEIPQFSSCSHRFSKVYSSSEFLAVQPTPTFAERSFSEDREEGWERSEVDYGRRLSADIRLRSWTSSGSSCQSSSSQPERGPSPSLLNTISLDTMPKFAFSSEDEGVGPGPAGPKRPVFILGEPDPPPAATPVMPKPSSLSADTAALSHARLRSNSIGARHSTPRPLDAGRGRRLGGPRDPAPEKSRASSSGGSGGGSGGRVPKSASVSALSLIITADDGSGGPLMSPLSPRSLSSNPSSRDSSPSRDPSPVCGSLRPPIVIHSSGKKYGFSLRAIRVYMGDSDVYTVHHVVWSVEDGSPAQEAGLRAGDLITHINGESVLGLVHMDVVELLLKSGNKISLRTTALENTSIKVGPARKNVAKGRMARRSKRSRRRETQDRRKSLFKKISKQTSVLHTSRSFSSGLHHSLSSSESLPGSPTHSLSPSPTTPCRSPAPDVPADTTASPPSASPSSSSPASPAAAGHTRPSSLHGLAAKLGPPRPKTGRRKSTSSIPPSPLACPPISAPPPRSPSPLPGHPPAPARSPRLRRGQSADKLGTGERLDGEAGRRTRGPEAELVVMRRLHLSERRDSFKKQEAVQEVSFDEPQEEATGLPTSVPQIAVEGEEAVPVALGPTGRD
How it was run: as §1

EPHB3 = EPHB3 (Homo sapiens, UniProt P54753); conditions: duplicate measurements, Km ATP
How it was run: as §1

TTBK1 = TTBK1 (Homo sapiens, UniProt Q5TCY1); conditions: duplicate measurements, Km ATP
Sequence of TTBK1 (Q5TCY1 whole entry): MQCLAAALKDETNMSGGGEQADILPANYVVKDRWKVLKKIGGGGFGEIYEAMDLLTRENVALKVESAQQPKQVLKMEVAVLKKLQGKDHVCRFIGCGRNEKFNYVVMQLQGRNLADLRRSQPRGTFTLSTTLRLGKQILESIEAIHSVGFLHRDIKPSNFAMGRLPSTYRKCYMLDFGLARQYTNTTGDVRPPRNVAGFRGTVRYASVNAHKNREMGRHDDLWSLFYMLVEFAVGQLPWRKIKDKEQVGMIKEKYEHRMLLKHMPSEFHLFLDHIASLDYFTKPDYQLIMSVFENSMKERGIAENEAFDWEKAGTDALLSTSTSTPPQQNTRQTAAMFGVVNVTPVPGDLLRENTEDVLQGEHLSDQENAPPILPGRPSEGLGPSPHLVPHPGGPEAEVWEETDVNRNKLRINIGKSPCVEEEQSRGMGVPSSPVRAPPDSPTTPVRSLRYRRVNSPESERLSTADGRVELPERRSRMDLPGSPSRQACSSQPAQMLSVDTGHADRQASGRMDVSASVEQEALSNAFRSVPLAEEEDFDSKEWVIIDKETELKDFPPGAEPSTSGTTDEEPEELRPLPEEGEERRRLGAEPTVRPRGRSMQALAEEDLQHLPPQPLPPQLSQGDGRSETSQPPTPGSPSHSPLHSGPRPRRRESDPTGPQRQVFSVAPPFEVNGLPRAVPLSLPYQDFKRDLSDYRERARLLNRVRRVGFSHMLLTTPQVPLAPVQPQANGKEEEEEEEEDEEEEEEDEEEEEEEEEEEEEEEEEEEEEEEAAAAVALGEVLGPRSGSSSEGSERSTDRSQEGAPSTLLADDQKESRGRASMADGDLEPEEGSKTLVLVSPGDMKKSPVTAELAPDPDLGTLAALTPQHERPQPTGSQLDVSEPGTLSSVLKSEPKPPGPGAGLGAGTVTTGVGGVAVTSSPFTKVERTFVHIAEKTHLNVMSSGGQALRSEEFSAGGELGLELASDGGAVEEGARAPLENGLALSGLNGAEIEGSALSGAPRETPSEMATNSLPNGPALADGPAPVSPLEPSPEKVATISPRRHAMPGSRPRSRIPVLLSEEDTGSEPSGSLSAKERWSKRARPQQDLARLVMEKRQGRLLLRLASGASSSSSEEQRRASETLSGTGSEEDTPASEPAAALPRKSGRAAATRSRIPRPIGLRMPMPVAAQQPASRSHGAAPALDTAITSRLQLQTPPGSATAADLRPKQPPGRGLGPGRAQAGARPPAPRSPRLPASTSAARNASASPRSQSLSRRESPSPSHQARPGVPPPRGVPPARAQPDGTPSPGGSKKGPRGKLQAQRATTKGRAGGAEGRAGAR
How it was run: as §1

P38d/MAPK13 = P38d/MAPK13 (Homo sapiens, UniProt O15264); conditions: duplicate measurements, Km ATP
Sequence of P38d/MAPK13 (O15264 whole entry): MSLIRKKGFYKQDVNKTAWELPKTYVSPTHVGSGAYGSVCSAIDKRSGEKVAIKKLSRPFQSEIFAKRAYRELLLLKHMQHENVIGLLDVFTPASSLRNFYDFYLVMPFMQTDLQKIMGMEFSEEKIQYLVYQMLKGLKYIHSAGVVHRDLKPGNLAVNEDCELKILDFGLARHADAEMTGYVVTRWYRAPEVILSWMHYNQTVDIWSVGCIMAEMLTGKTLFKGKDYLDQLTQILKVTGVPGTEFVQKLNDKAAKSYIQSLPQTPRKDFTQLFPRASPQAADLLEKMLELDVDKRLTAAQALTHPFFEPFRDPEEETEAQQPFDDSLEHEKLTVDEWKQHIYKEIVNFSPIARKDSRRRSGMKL
How it was run: as §1

ROCK2 = ROCK2 (Homo sapiens, UniProt O75116); conditions: duplicate measurements, Km ATP; read-out: % Enzyme Activity (relative to DMSO controls) / TP-0005801 (0.3µM) / Data 1
How it was run: as §1

CLK1 = CLK1 (Homo sapiens, UniProt P49759); conditions: duplicate measurements, Km ATP
How it was run: as §1

CK2a2 = molecular target: T2, CK2a2 (Homo sapiens, UniProt P19784); conditions: duplicate measurements, Km ATP
T2 construct: gene CSNK2A2
T2 sequence (P19784 whole entry): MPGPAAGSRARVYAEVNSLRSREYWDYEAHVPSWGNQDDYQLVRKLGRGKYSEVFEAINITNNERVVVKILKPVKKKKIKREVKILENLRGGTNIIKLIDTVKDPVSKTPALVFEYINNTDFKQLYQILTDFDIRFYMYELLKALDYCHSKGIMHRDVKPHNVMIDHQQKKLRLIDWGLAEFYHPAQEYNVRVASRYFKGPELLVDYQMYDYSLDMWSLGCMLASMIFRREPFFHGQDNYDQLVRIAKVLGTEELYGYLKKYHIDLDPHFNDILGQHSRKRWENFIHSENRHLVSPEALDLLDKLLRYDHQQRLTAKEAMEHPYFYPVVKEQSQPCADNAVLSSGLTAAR
How it was run: as §1

ARAF = molecular target: T3, ARAF (Homo sapiens, UniProt P10398); conditions: duplicate measurements, Km ATP
T3 sequence (P10398 1-606): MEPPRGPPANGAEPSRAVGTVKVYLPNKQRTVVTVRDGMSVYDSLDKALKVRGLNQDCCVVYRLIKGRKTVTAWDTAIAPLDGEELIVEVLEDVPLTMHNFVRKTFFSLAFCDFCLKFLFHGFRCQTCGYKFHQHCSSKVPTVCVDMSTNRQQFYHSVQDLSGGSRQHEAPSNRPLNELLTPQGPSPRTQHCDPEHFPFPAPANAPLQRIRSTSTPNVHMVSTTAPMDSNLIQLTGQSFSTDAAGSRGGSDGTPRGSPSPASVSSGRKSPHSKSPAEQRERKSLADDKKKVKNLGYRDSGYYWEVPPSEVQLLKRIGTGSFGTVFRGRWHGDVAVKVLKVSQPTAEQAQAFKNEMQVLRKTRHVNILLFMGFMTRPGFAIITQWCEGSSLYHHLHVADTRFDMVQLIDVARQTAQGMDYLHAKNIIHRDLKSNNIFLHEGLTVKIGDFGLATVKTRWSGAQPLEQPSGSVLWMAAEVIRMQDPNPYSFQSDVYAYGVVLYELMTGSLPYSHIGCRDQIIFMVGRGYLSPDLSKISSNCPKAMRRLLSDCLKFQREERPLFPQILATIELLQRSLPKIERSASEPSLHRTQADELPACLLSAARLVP
How it was run: as §1

AURORA C = molecular target: T4, AURORA C (Homo sapiens, UniProt Q9UQB9); conditions: duplicate measurements, Km ATP
T4 construct: gene AURKC
T4 sequence (Q9UQB9 whole entry): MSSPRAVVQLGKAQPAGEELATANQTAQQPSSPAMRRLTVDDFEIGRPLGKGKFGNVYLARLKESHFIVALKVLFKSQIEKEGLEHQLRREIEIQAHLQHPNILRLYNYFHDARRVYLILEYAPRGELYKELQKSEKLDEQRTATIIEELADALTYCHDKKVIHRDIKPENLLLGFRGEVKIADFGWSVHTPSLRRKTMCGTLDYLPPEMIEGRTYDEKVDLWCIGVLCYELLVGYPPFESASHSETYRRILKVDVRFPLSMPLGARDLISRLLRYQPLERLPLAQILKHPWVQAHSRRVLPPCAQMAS
How it was run: as §1

[1] = read-out: % Enzyme Activity (relative to DMSO controls) / TP-0005801 (0.3µM) / Data 1
[2] = read-out: % Enzyme Activity (relative to DMSO controls) / TP-0005801 (0.3µM) / Data 2

remaining activity at 0.3 µM (JAK1; [1]): 104% | remaining activity at 0.3 µM (JAK1; [2]): 102% | remaining activity at 0.3 µM (DYRK4; [1]): 104% | remaining activity at 0.3 µM (DYRK4; [2]): 99.2% | remaining activity at 0.3 µM (IRAK1; [1]): 87.2% | remaining activity at 0.3 µM (IRAK1; [2]): 83.4% | remaining activity at 0.3 µM (TAOK2/TAO1; [1]): 86% | remaining activity at 0.3 µM (TAOK2/TAO1; [2]): 84.4% | remaining activity at 0.3 µM (MAST3; [1]): 101% | remaining activity at 0.3 µM (MAST3; [2]): 100% | remaining activity at 0.3 µM (EPHB3; [1]): 104% | remaining activity at 0.3 µM (EPHB3; [2]): 102% | remaining activity at 0.3 µM (TTBK1; [1]): 97.2% | remaining activity at 0.3 µM (TTBK1; [2]): 94% | remaining activity at 0.3 µM (P38d/MAPK13; [1]): 102% | remaining activity at 0.3 µM (P38d/MAPK13; [2]): 91.4% | remaining activity at 0.3 µM (ROCK2): 103% | remaining activity at 0.3 µM (CLK1; [1]): 11.9% | remaining activity at 0.3 µM (CLK1; [2]): 11.7% | remaining activity at 0.3 µM (CK2a2; [1]): 107% | remaining activity at 0.3 µM (CK2a2; [2]): 89.1% | remaining activity at 0.3 µM (ARAF; [1]): 88.1% | remaining activity at 0.3 µM (ARAF; [2]): 82.3% | remaining activity at 0.3 µM (AURORA C; [1]): 97% | remaining activity at 0.3 µM (AURORA C; [2]): 92.9%
SMILES: COc1cc(N2CCN(C)CC2)c(C)cc1Nc1ncc(Br)c(Nc2cccnc2N(C)C)n1 [TP-5801]
